According to ChEMBL document CHEMBL1151868, “Identification of pyrazolo[1,5-a]pyrimidine-3-carboxylates as B-Raf kinase inhibitors” (Bioorg Med Chem Lett, 2009):

How the values were obtained:
[1] = biological target: Serine/threonine-protein kinase B-raf (Homo sapiens, UniProt P15056); assay: Inhibition of human recombinant B-Raf expressed in Sf9 cells assessed as inhibition of Mek1 phosphorylation
BXPC-3 = assay: Growth inhibition of human BxPC3 cells; type: functional, cell-based
HT-29 = assay: Growth inhibition of human HT-29 cells; type: functional, cell-based
A-375 = assay: Growth inhibition of human A375 cells; type: functional, cell-based
SW-620 = assay: Growth inhibition of human SW620 cells; type: functional, cell-based
LoVo = assay: Growth inhibition of human LoVo cells; type: functional, cell-based
[2] = Growth inhibition of human WM266.4 cells; type: functional, cell-based; conditions: WM 266-4
Caco-2 = assay: Growth inhibition of human Caco-2 cells; type: functional, cell-based
[3] = biological target: Serine/threonine-protein kinase mTOR (Homo sapiens, UniProt P42345); assay: Inhibition of mTOR
[4] = biological target: RAC-alpha serine/threonine-protein kinase (Homo sapiens, UniProt P31749); assay: Inhibition of AKT
RAC-alpha serine/threonine-protein kinase, sequence (P31749 whole entry): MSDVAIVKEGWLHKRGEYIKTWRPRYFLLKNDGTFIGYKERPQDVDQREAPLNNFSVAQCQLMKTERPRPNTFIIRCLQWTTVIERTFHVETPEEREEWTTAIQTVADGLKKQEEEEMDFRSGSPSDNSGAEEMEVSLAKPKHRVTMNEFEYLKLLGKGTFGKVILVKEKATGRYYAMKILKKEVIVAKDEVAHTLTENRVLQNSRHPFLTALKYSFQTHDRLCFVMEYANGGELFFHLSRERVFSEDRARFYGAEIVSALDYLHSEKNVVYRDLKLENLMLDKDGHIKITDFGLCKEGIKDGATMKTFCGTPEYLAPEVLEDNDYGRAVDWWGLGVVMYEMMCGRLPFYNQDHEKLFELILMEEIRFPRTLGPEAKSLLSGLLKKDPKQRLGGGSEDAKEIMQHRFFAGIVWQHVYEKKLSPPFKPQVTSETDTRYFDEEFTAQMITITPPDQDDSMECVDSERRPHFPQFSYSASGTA

[5] = biological target: Cyclin-dependent kinase 4 (Homo sapiens, UniProt P11802); assay: Inhibition of CDK4
Cyclin-dependent kinase 4, sequence (P11802 whole entry): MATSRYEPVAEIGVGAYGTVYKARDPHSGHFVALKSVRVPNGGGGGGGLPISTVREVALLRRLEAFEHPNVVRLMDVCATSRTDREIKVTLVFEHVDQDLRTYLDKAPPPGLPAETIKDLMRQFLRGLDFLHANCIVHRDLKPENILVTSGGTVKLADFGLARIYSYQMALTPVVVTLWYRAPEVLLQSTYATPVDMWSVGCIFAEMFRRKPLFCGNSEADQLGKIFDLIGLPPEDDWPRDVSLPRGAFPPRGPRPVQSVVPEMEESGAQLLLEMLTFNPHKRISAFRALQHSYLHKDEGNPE

[6] = biological target: Tyrosine-protein kinase Lck (Homo sapiens, UniProt P06239); assay: Inhibition of LCK
[7] = biological target: Tyrosine-protein kinase Lyn (Homo sapiens, UniProt P07948); assay: Inhibition of LYN
Tyrosine-protein kinase Lyn, sequence (P07948 whole entry): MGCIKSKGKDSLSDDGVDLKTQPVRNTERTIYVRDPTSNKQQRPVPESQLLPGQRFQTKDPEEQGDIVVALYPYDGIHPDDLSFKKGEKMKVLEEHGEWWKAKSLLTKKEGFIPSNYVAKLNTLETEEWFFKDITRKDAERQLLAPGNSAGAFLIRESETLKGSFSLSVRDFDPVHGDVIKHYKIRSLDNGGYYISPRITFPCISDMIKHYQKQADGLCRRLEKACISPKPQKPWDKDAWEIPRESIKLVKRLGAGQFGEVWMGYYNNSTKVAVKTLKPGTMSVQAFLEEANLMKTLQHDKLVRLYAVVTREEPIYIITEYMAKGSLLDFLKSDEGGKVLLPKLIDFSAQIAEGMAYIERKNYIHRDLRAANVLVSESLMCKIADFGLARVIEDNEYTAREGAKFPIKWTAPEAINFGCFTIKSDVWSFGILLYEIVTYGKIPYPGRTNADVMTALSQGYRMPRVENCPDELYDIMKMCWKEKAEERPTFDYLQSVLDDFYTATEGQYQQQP

[8] = biological target: Vascular endothelial growth factor receptor 2 (Homo sapiens, UniProt P35968); assay: Inhibition of KDR
[9] = biological target: Insulin-like growth factor 1 receptor (Homo sapiens, UniProt P08069); assay: Inhibition of IGFR1
[10] = biological target: Phosphatidylinositol 4,5-bisphosphate 3-kinase catalytic subunit alpha isoform (Homo sapiens, UniProt P42336); assay: Inhibition of PI3Kalpha
Phosphatidylinositol 4,5-bisphosphate 3-kinase catalytic subunit alpha isoform, sequence (P42336 whole entry, canonical isoform): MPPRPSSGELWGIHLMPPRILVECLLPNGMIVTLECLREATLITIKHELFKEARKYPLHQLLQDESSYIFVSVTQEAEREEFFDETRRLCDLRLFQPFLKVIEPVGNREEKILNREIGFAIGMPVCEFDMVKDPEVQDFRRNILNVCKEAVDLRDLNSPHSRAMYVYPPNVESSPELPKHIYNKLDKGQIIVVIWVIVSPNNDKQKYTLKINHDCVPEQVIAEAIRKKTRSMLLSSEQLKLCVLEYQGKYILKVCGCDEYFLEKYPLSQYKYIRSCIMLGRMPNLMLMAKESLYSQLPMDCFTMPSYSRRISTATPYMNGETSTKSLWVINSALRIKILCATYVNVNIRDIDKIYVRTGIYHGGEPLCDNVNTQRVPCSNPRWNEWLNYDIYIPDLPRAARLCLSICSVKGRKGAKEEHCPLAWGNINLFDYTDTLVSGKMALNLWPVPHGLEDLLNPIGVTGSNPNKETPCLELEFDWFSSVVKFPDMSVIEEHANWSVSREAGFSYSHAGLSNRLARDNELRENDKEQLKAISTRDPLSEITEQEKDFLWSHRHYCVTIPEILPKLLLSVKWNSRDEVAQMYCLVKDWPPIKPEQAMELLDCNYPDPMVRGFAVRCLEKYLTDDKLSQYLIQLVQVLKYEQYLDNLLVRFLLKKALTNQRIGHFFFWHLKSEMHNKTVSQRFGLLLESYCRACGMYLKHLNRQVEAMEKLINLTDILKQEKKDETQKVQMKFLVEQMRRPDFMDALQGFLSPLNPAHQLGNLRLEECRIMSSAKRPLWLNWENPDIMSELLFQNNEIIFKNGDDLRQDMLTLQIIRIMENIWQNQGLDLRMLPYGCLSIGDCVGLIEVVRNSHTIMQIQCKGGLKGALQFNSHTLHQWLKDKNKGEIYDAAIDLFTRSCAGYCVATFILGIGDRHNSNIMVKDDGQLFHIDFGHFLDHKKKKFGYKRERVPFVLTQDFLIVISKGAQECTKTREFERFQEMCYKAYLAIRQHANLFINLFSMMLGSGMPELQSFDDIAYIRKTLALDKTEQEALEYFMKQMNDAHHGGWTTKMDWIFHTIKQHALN

[11] = biological target: Proto-oncogene tyrosine-protein kinase Src (Homo sapiens, UniProt P12931); assay: Inhibition of SRC
Proto-oncogene tyrosine-protein kinase Src, sequence (P12931 2-536 limits assumed): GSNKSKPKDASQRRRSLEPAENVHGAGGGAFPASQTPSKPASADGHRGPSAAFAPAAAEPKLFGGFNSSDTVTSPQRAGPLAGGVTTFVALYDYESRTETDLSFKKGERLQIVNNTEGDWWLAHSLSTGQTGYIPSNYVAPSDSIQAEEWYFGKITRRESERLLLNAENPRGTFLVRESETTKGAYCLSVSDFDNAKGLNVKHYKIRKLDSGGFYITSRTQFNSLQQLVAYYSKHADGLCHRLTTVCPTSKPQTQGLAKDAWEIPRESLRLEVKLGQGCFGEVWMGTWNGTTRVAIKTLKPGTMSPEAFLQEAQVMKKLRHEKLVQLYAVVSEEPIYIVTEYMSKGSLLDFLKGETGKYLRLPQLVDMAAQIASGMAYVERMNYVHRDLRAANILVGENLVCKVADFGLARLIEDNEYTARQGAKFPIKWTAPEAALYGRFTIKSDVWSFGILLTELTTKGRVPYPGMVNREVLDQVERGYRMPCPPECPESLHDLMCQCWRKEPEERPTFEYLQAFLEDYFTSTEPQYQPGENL

[12] = biological target: Mitogen-activated protein kinase kinase kinase 8 (Homo sapiens, UniProt P41279); assay: Inhibition of Tpl2
Mitogen-activated protein kinase kinase kinase 8, sequence (P41279 whole entry): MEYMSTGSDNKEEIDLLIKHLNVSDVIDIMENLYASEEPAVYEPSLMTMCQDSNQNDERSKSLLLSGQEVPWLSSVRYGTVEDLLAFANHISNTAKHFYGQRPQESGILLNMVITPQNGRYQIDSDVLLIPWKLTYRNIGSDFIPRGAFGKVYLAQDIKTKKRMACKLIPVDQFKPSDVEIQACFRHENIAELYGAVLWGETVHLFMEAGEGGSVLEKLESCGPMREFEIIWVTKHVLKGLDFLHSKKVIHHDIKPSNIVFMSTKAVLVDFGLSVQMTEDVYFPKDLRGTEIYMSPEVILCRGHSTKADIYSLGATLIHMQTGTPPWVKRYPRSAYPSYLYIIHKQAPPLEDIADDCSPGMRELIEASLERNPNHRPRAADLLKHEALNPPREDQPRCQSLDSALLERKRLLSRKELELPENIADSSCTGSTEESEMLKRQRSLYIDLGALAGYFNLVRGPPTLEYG

[13] = biological target: Tyrosine-protein kinase BTK (Homo sapiens, UniProt Q06187); assay: Inhibition of BTK
Tyrosine-protein kinase BTK, sequence (Q06187 whole entry): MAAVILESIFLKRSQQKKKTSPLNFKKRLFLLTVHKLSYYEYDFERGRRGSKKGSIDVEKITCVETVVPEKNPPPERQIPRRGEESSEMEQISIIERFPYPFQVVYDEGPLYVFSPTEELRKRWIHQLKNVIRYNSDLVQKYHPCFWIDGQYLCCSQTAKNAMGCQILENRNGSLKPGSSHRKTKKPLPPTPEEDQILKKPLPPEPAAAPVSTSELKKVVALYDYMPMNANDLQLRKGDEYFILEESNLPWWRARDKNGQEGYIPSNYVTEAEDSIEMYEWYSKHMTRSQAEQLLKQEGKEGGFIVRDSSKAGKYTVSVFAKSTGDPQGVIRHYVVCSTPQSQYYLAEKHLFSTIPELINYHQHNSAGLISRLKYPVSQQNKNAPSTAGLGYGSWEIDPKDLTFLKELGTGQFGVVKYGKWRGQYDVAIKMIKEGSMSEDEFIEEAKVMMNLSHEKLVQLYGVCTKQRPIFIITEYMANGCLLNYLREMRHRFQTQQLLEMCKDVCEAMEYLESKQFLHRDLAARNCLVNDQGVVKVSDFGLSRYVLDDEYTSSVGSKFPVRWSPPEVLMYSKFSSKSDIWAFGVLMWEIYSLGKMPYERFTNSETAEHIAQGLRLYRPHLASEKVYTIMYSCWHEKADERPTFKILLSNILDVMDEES

Serine/threonine-protein kinase B-raf, sequence (P15056 whole entry): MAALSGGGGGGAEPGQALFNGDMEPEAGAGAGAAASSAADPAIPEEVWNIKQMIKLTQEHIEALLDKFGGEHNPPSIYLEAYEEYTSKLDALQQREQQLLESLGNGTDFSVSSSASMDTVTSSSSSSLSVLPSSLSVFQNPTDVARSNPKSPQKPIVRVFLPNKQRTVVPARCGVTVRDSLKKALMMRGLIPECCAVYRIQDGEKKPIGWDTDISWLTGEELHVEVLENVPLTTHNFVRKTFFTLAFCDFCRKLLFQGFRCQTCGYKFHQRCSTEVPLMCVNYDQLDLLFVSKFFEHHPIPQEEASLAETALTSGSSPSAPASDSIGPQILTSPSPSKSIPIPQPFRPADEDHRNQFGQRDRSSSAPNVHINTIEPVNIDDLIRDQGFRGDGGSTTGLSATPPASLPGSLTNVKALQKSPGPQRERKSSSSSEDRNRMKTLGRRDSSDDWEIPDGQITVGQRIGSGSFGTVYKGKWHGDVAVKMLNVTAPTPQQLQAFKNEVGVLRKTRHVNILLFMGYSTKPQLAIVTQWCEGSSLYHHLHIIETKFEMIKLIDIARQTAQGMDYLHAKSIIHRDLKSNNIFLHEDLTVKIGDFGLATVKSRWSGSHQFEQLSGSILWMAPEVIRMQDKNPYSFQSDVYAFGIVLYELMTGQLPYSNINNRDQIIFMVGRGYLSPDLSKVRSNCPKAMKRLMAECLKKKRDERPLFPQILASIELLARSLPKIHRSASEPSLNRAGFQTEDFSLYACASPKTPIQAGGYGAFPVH

| SMILES | IC50 [1] | also measured |
| --- | --- | --- |
| CCOC(=O)c1cnn2c(-c3cccc(NC(=O)Nc4cc(C(F)(F)F)ccc4Cl)c3)ccnc12 | > 10 µM | – |
| CCOC(=O)c1cnn2c(-c3cccc(NC(=O)c4cccc(OC(F)(F)F)c4)c3)ccnc12 | 1.57 µM | – |
| CCOC(=O)c1cnn2c(-c3cccc(NC(=O)c4ccc(Cl)c(C(F)(F)F)c4)c3)ccnc12 | 4.27 µM | – |
| O=C(Nc1cccc(-c2ccnc3c(C(=O)NCCN4CCOCC4)cnn23)c1)c1cccc(C(F)(F)F)c1 | 6.34 µM | – |
| CCOC(=O)c1cnn2c(-c3cccc(NC(=O)Nc4cccc(Cl)c4)c3)ccnc12 | > 10 µM | – |
| CCOC(=O)c1cnn2c(-c3cccc(NC(=O)c4cc(C(F)(F)F)ccc4C)c3)ccnc12 | > 10 µM | – |
| CCOC(=O)c1cnn2c(-c3cccc(NC(=O)Nc4ccc(C(F)(F)F)cc4)c3)ccnc12 | 3.6 µM | – |
| CCOC(=O)c1cnn2c(-c3cccc(NC(=O)c4ccccc4)c3)ccnc12 | > 10 µM | – |
| CCOC(=O)c1cnn2c(-c3cccc(NC(=O)c4ccc(OC)c(C(F)(F)F)c4)c3)ccnc12 | 1.03 µM | – |
| O=C(Nc1cccc(-c2ccnc3c(C(=O)OCC(F)(F)F)cnn23)c1)c1cccc(C(F)(F)F)c1 | 1.45 µM | – |
| CCOC(=O)c1cnn2c(-c3cccc(NC(=O)c4cccc(C(F)(F)F)c4)c3)ccnc12 | 1.54 µM | IC50 (BXPC-3): 3.25 µM; IC50 (HT-29): 7 µM; IC50 (A-375): 3.8 µM; IC50 (SW-620): 8.3 µM; IC50 (LoVo): 3.87 µM; IC50 [2]: 6.2 µM; IC50 (Caco-2): 6.6 µM; IC50 [3]: > 10 µM; IC50 [4]: > 10 µM; IC50 [5]: > 10 µM; IC50 [6]: > 10 µM; IC50 [7]: > 10 µM; IC50 [8]: > 10 µM; IC50 [9]: > 10 µM; IC50 [10]: > 10 µM; IC50 [11]: > 10 µM; IC50 [12]: > 10 µM; IC50 [13]: > 10 µM |
| CCOC(=O)c1cnn2c(-c3cccc(NC(=O)c4cccc(C#N)c4)c3)ccnc12 | > 10 µM | – |

Now those with a lower IC50 [1], led by results:

| IC50 [1] | SMILES | also measured |
| --- | --- | --- |
| 0.27 µM | COCCCNC(=O)c1cnn2c(-c3cccc(NC(=O)Nc4ccc(Cl)c(C(F)(F)F)c4)c3)ccnc12 | – |
| 0.54 µM | CCOC(=O)c1cnn2c(-c3cccc(NC(=O)Nc4cccc(C(F)(F)F)c4)c3)ccnc12 | – |
| 0.36 µM | CCOC(=O)c1cnn2c(-c3cccc(NC(=O)Nc4ccc(Cl)c(C(F)(F)F)c4)c3)ccnc12 | – |
| 0.24 µM | CCOC(=O)c1cnn2c(-c3cccc(NC(=O)Nc4ccc(F)c(C(F)(F)F)c4)c3)ccnc12 | – |
| 0.16 µM | O=C(Nc1cccc(-c2ccnc3c(C(=O)NCCN4CCOCC4)cnn23)c1)Nc1ccc(Cl)c(C(F)(F)F)c1 | – |
| 0.36 µM | CCOC(=O)c1cnn2c(-c3cccc(NC(=O)Nc4ccc(C)c(C(F)(F)F)c4)c3)ccnc12 | – |
| 0.17 µM | CCN(CC)CCNC(=O)c1cnn2c(-c3cccc(NC(=O)Nc4ccc(Cl)c(C(F)(F)F)c4)c3)ccnc12 | – |
